Experiment [1] concerns the target T1, TPα^S329A (Homo sapiens, UniProt P21731, S329A).
T1 construct: expressed in transfected cells
T1 sequence (P21731 1-343 S329A): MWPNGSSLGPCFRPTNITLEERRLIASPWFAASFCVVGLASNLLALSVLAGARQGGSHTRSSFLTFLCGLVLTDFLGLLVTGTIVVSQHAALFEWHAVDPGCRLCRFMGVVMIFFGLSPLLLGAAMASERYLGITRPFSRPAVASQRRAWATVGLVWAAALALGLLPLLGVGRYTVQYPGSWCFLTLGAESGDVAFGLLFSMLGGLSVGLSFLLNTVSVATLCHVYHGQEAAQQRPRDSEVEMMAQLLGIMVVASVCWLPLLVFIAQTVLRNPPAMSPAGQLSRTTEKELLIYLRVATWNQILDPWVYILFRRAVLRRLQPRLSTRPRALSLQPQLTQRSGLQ
Put plainly: [3H]SQ29,548 radioligand binding, Scatchard analysis, HEK.TPα^S329A. On the procedure: (§1) Cells were harvested by centrifugation at 500×g at 4 °C for 5 min and washed three times with ice-cold Ca^2+/Mg^2+-free phosphate-buffered saline (PBS). TP radioligand binding assays were carried out at 30 °C for 30 min in 100 μl reactions in the presence of 0–40 nM [^3H] […] Protein determinations were carried out using the Bradford assay.
(§2) Radioligand binding and Scatchard analysis data were analysed using GraphPad Prisim V4.0 programme (GraphPad Software Inc., San Diego CA, USA). Statistical analyses were carried out using the unpaired Student's t test using the Statworks Analysis Package. p-values ≤ 0.01 indicated statistically significant differences.

For experiment [2], the target named is T2, TPα^S331A (Homo sapiens, UniProt P21731, S331A).
T2 construct: expressed in transfected cells
T2 sequence (P21731 1-343 S331A): T1 sequence (P21731 1-343 S329A) with A329S, S331A
Put plainly: [3H]SQ29,548 radioligand binding, Scatchard analysis, HEK.TPα^S331A. On the procedure:
as §1, §2

Experiment [3] has as its target T3, TP^S145A,Δ328 (Homo sapiens, UniProt P21731, S145A).
T3 construct: expressed in transfected cells
T3 sequence (P21731 1-328 S145A): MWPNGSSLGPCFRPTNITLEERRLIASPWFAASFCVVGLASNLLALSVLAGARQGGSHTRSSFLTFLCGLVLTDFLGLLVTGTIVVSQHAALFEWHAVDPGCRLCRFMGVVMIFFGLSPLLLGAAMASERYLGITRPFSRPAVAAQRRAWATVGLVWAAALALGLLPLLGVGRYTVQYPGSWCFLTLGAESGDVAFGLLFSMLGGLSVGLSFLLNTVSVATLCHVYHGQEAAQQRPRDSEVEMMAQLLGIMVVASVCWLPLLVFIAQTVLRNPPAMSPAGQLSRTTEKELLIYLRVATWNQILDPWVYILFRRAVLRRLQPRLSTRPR
Description: Intracellular calcium mobilization, HEK.TP^S145A,Δ328 cells. The experiment is classed as cell-based. On the procedure:
Measurement of intracellular calcium mobilization ([Ca^2+]i) in FURA2/AM preloaded HEK 293 cell lines (2 × 10^6 cells/dish), each transiently co-transfected with pADVA (10 μg), and pCMV:Gαq (25 μg), was carried out as previously described. To investigate the effect of GRK2/βARK1 on TP-mediated [Ca^2+]i mobilization, HEK.TPα or HEK.TPβ cells (2 × 10^6 cells/dish) were co-transfected with pADVA (10 μg), pCMV:Gαq (25 μg) along with pRK5:βARK1^495–689 (25 μg), encoding a dominant negative form of GRK2/βARK1[39]. […] For each measurement of [Ca^2+]i mobilization, aliquots of cells were diluted to 0.825 × 10^6 cells/ml in HBSSHB, 1 mM CaCl2 and FURA2 fluorescence was recorded (2 ml aliquots of cells) at 37^ °C with gentle stirring with a Perkin Elmer-Cetus LS50-B spectrofluorometer at excitation wavelengths of 340 nm and 380 nm and emission wavelength of 510 nm, respectively.
Cells were stimulated with the TP agonist U46619 (1 μM) and changes in [Ca^2+]i mobilization were monitored as a function of time. […]
The vehicle had no effect on U46619-mediated [Ca^2+]i mobilization. Calibration of the signal was performed in each sample by adding 0.2% Triton X-100 to obtain the maximal fluorescence ratio (Rmax) and then 1 mM EGTA to obtain the minimal fluorescence ratio (Rmin). […]
(In general: Calcium assays in cells follow changes in intracellular calcium, usually with a dye or a luminescent sensor.)

The values below come from publication PMC2680961, “Homologous desensitization of signalling by the alpha (α) isoform of the human thromboxane A2 receptor: A specific role for nitric oxide signalling” (Biochimica et Biophysica Acta, 2007).

Numbering of substitutions follows the chain as printed.

With `O=C(O)CCC/C=C\C[C@@H]1[C@H](CNNC(=O)Nc2ccccc2)[C@H]2CC[C@@H]1O2` [SQ29,548], the figures for the “Bmax (pmol/mg protein ± S.E.M.)” value in experiment [1] and in experiment [2] were 4.43 ± 0.04 pmol/mg protein and 4.00 ± 0.04 pmol/mg protein, respectively.
Take `CCCCC[C@H](O)/C=C/[C@@H]1[C@@H](C/C=C\CCCC(=O)O)[C@H]2CO[C@@H]1C2` [U46619]: the “Δ[Ca2+]i, U46619-induced” value amounted to 174 ± 7.7 nM in experiment [3] (primary 1 μM U46619 4 min) and 170 ± 9.9 nM in experiment [3] (secondary 1 μM U46619 at 15 min).
